Patent US10167284B2, “Spirocyclic compounds as agonists of the muscarinic M1 receptor and/or M4 receptor” (HEPTARES THERAPEUTICS LIMITED, priority 2015, dated 2019)

What follows are compounds tested against T1, human muscarinic M4 receptor (Homo sapiens, UniProt P08173) (assay: Alphascreen Surefire phospho-ERK1/2 functional assay, M4). Conditions: CHO cells stably expressing human M4; phospho-ERK1/2; read-out: pEC50 M4 (converted).
T1 construct: expressed in transfected cells
T1 sequence (P08173 1-479): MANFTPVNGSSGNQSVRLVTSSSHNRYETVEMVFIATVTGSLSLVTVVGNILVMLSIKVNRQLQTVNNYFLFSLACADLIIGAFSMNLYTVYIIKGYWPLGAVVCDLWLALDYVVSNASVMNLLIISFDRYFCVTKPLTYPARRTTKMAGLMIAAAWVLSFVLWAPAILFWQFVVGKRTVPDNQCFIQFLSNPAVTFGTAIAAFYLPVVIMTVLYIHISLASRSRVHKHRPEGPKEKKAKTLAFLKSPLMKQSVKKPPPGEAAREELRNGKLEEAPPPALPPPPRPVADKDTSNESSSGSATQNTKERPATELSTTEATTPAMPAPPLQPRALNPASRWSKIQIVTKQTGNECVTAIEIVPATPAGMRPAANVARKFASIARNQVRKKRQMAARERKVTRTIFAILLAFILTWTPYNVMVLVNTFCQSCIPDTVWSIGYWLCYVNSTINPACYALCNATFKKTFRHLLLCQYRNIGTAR
Type: cell-based

SMILES	EC50 [nM]
CCCN1CC2(CCN(C3CC4(CCN(C(=O)OCC)C4)C3)CC2)OC1=O (single isomer, unassigned) [4-7 Isomer 2]	501
CCN1C(=O)OC2(CCN(C3CC4(CCN(C(=O)OC)C4)C3)CC2)C1(C)C (single isomer, unassigned) [4-34 Isomer 2]	100
COC(=O)N1CCC2(CC(N3CCC4(CC3)CC(=O)NC4Cc3ccccc3)C2)C1 (single isomer, unassigned) [3-7 Isomer 2]	79.4
CCOC(=O)N1CC2(CC(N3CCC4(CC3)OC(=O)N(CC)C4CC)C2)C1 (racemic) [2-2 racemic]	200
CCOC(=O)N1CCC2(CC(N3CCC4(CC3)CC(=O)NC4Cc3ccccc3)C2)C1 (single isomer, unassigned) [3-8 Isomer 2]	79.4
CCCN1NC(=O)CC12CCN(C1CC3(CCN(C(=O)OCC)C3)C1)CC2 (single isomer, unassigned) [6-4 Isomer 2]	3.98
CCOC(=O)N1CC2(CCC(N3CCC4(CC3)OC(=O)N(CC)C4(C)C)C2)C1 (racemic) [8-4 racemic]	7.94
CCOC(=O)N1CCC2(CC(N3CCC4(CC3)OC(=O)N(CC3CC3)C4CC)C2)C1 (single isomer, unassigned) [4-25 Isomer 2 (racemic)]	126

Same assay, conditions: CHO, read-out: M4 % Emax cf. ACh, CHO cells stably expressing human M4; Emax relative to ACh

SMILES	Emax [%]
CCCN1CC2(CCN(C3CC4(CCN(C(=O)OCC)C4)C3)CC2)OC1=O (single isomer, unassigned) [4-7 Isomer 2]	69
CCN1C(=O)OC2(CCN(C3CC4(CCN(C(=O)OC)C4)C3)CC2)C1(C)C (single isomer, unassigned) [4-34 Isomer 2]	83
COC(=O)N1CCC2(CC(N3CCC4(CC3)CC(=O)NC4Cc3ccccc3)C2)C1 (single isomer, unassigned) [3-7 Isomer 2]	57
CCOC(=O)N1CC2(CC(N3CCC4(CC3)OC(=O)N(CC)C4CC)C2)C1 (racemic) [2-2 racemic]	69
CCOC(=O)N1CCC2(CC(N3CCC4(CC3)CC(=O)NC4Cc3ccccc3)C2)C1 (single isomer, unassigned) [3-8 Isomer 2]	98
CCCN1NC(=O)CC12CCN(C1CC3(CCN(C(=O)OCC)C3)C1)CC2 (single isomer, unassigned) [6-4 Isomer 2]	100
CCOC(=O)N1CC2(CCC(N3CCC4(CC3)OC(=O)N(CC)C4(C)C)C2)C1 (racemic) [8-4 racemic]	91
CCOC(=O)N1CCC2(CC(N3CCC4(CC3)OC(=O)N(CC3CC3)C4CC)C2)C1 (single isomer, unassigned) [4-25 Isomer 2 (racemic)]	69

Each compound was assayed against human muscarinic M3 receptor (Homo sapiens, UniProt P20309) (assay: Alphascreen Surefire phospho-ERK1/2 functional assay, M3). Conditions: not given.
Sequence of human muscarinic M3 receptor (P20309 whole entry): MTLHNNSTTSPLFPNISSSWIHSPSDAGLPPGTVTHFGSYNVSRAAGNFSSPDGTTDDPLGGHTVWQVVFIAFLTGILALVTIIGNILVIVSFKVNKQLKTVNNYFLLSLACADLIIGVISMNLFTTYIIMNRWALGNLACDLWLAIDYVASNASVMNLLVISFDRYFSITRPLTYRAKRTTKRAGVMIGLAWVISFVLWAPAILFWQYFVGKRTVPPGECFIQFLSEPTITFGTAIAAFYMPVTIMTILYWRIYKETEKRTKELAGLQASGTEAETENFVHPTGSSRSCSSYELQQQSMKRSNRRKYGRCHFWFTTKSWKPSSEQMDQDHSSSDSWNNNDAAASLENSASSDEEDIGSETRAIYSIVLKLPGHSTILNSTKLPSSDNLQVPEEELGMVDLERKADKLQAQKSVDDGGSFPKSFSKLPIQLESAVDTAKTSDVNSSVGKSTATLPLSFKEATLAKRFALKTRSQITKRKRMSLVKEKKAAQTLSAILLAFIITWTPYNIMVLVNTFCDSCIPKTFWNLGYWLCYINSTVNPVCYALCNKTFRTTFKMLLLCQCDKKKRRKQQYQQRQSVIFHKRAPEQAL

SMILES	EC50 [nM]
CCCN1CC2(CCN(C3CC4(CCN(C(=O)OCC)C4)C3)CC2)OC1=O (single isomer, unassigned) [4-7 Isomer 2]	> 20000
CCN1C(=O)OC2(CCN(C3CC4(CCN(C(=O)OC)C4)C3)CC2)C1(C)C (single isomer, unassigned) [4-34 Isomer 2]	> 20000
COC(=O)N1CCC2(CC(N3CCC4(CC3)CC(=O)NC4Cc3ccccc3)C2)C1 (single isomer, unassigned) [3-7 Isomer 2]	> 20000
CCOC(=O)N1CC2(CC(N3CCC4(CC3)OC(=O)N(CC)C4CC)C2)C1 (racemic) [2-2 racemic]	> 20000
CCOC(=O)N1CCC2(CC(N3CCC4(CC3)CC(=O)NC4Cc3ccccc3)C2)C1 (single isomer, unassigned) [3-8 Isomer 2]	> 20000
CCCN1NC(=O)CC12CCN(C1CC3(CCN(C(=O)OCC)C3)C1)CC2 (single isomer, unassigned) [6-4 Isomer 2]	> 20000
CCOC(=O)N1CC2(CCC(N3CCC4(CC3)OC(=O)N(CC)C4(C)C)C2)C1 (racemic) [8-4 racemic]	> 20000

Same assay, conditions: CHO, read-out: M3 % Emax cf. ACh, CHO cells stably expressing human M3; Emax relative to ACh

SMILES	Emax [%]
CCCN1CC2(CCN(C3CC4(CCN(C(=O)OCC)C4)C3)CC2)OC1=O (single isomer, unassigned) [4-7 Isomer 2]	2
CCN1C(=O)OC2(CCN(C3CC4(CCN(C(=O)OC)C4)C3)CC2)C1(C)C (single isomer, unassigned) [4-34 Isomer 2]	1
COC(=O)N1CCC2(CC(N3CCC4(CC3)CC(=O)NC4Cc3ccccc3)C2)C1 (single isomer, unassigned) [3-7 Isomer 2]	14
CCOC(=O)N1CC2(CC(N3CCC4(CC3)OC(=O)N(CC)C4CC)C2)C1 (racemic) [2-2 racemic]	27
CCOC(=O)N1CCC2(CC(N3CCC4(CC3)CC(=O)NC4Cc3ccccc3)C2)C1 (single isomer, unassigned) [3-8 Isomer 2]	53
CCCN1NC(=O)CC12CCN(C1CC3(CCN(C(=O)OCC)C3)C1)CC2 (single isomer, unassigned) [6-4 Isomer 2]	26
CCOC(=O)N1CC2(CCC(N3CCC4(CC3)OC(=O)N(CC)C4(C)C)C2)C1 (racemic) [8-4 racemic]	1

These compounds were tested against T2, human muscarinic M1 receptor (Homo sapiens, UniProt P11229) (assay: Alphascreen Surefire phospho-ERK1/2 functional assay, M1). Conditions: CHO cells stably expressing human M1; phospho-ERK1/2; read-out: pEC50 M1 (converted).
T2 construct: expressed in transfected cells
T2 sequence (P11229 1-460): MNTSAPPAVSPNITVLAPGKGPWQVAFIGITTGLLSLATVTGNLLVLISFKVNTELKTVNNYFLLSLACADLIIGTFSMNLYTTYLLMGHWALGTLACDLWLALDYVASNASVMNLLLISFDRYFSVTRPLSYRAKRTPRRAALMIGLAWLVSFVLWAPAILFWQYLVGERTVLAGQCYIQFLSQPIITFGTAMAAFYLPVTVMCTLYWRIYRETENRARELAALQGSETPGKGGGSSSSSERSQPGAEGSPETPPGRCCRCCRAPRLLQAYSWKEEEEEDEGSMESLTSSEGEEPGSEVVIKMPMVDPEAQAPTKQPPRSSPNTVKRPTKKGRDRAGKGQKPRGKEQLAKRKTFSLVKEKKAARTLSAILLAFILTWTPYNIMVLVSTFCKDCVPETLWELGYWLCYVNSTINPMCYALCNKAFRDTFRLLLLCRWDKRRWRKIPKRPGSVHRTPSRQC
Type: cell-based
Method: CHO cells stably expressing the human muscarinic M1, M2, M3 or M4 receptor were plated (25K/well) onto 96-well tissue culture plates in MEM-alpha+10% dialysed FBS. Once adhered, cells were serum-starved overnight. Agonist stimulation was performed by the addition of 5 μL agonist to the cells for 5 min (37° C.). Media was removed and 50 μL of lysis buffer added. After 15 min, a 4 μL sample was transferred to 384-well plate and 7 μL of detection mixture added. Plates were incubated for 2 h with gentle agitation in the dark and then read on a PHERAstar plate reader.
pEC50 and Emax figures were calculated from the resulting data for each receptor subtype.

SMILES	EC50 [nM]
CCCN1CC2(CCN(C3CC4(CCN(C(=O)OCC)C4)C3)CC2)OC1=O (single isomer, unassigned) [4-7 Isomer 2]	631
CCN1C(=O)OC2(CCN(C3CC4(CCN(C(=O)OC)C4)C3)CC2)C1(C)C (single isomer, unassigned) [4-34 Isomer 2]	2000
COC(=O)N1CCC2(CC(N3CCC4(CC3)CC(=O)NC4Cc3ccccc3)C2)C1 (single isomer, unassigned) [3-7 Isomer 2]	25.1
CCOC(=O)N1CC2(CC(N3CCC4(CC3)OC(=O)N(CC)C4CC)C2)C1 (racemic) [2-2 racemic]	2000
CCOC(=O)N1CCC2(CC(N3CCC4(CC3)CC(=O)NC4Cc3ccccc3)C2)C1 (single isomer, unassigned) [3-8 Isomer 2]	12.6
CCCN1NC(=O)CC12CCN(C1CC3(CCN(C(=O)OCC)C3)C1)CC2 (single isomer, unassigned) [6-4 Isomer 2]	31.6
CCOC(=O)N1CC2(CCC(N3CCC4(CC3)OC(=O)N(CC)C4(C)C)C2)C1 (racemic) [8-4 racemic]	200
CCOC(=O)N1CCC2(CC(N3CCC4(CC3)OC(=O)N(CC3CC3)C4CC)C2)C1 (single isomer, unassigned) [4-25 Isomer 2 (racemic)]	794

Same assay, conditions: CHO, read-out: M1 % Emax cf. ACh, CHO cells stably expressing human M1; Emax relative to ACh

SMILES	Emax [%]
CCCN1CC2(CCN(C3CC4(CCN(C(=O)OCC)C4)C3)CC2)OC1=O (single isomer, unassigned) [4-7 Isomer 2]	104
CCN1C(=O)OC2(CCN(C3CC4(CCN(C(=O)OC)C4)C3)CC2)C1(C)C (single isomer, unassigned) [4-34 Isomer 2]	34
COC(=O)N1CCC2(CC(N3CCC4(CC3)CC(=O)NC4Cc3ccccc3)C2)C1 (single isomer, unassigned) [3-7 Isomer 2]	101
CCOC(=O)N1CC2(CC(N3CCC4(CC3)OC(=O)N(CC)C4CC)C2)C1 (racemic) [2-2 racemic]	74
CCOC(=O)N1CCC2(CC(N3CCC4(CC3)CC(=O)NC4Cc3ccccc3)C2)C1 (single isomer, unassigned) [3-8 Isomer 2]	110
CCCN1NC(=O)CC12CCN(C1CC3(CCN(C(=O)OCC)C3)C1)CC2 (single isomer, unassigned) [6-4 Isomer 2]	89
CCOC(=O)N1CC2(CCC(N3CCC4(CC3)OC(=O)N(CC)C4(C)C)C2)C1 (racemic) [8-4 racemic]	63
CCOC(=O)N1CCC2(CC(N3CCC4(CC3)OC(=O)N(CC3CC3)C4CC)C2)C1 (single isomer, unassigned) [4-25 Isomer 2 (racemic)]	73

Each compound was assayed against T3, human muscarinic M2 receptor (Homo sapiens, UniProt P08172) (assay: Alphascreen Surefire phospho-ERK1/2 functional assay, M2). Conditions: CHO, read-out: M2 % Emax cf. ACh, CHO cells stably expressing human M2; Emax relative to ACh.
T3 sequence (P08172 1-466): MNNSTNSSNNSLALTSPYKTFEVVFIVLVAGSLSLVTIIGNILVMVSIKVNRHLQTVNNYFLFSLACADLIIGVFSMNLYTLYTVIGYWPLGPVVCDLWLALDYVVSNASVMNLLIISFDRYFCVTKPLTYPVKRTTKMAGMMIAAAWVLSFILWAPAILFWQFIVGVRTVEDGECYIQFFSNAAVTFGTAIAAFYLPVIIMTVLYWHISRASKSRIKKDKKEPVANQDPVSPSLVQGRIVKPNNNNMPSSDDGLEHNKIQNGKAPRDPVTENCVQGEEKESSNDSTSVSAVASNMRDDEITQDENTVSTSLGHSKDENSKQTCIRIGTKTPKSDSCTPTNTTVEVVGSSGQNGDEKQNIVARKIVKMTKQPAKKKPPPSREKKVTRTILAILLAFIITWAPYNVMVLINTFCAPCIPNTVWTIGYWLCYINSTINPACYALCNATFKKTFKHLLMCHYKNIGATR

SMILES	Emax [%]
CCCN1CC2(CCN(C3CC4(CCN(C(=O)OCC)C4)C3)CC2)OC1=O (single isomer, unassigned) [4-7 Isomer 2]	41
CCN1C(=O)OC2(CCN(C3CC4(CCN(C(=O)OC)C4)C3)CC2)C1(C)C (single isomer, unassigned) [4-34 Isomer 2]	2
COC(=O)N1CCC2(CC(N3CCC4(CC3)CC(=O)NC4Cc3ccccc3)C2)C1 (single isomer, unassigned) [3-7 Isomer 2]	11
CCOC(=O)N1CC2(CC(N3CCC4(CC3)OC(=O)N(CC)C4CC)C2)C1 (racemic) [2-2 racemic]	71
CCOC(=O)N1CCC2(CC(N3CCC4(CC3)CC(=O)NC4Cc3ccccc3)C2)C1 (single isomer, unassigned) [3-8 Isomer 2]	33
CCCN1NC(=O)CC12CCN(C1CC3(CCN(C(=O)OCC)C3)C1)CC2 (single isomer, unassigned) [6-4 Isomer 2]	20
CCOC(=O)N1CC2(CCC(N3CCC4(CC3)OC(=O)N(CC)C4(C)C)C2)C1 (racemic) [8-4 racemic]	4

Same assay, conditions: pEC50 M2, CHO cells stably expressing human M2; phospho-ERK1/2

SMILES	EC50 [nM]
CCCN1CC2(CCN(C3CC4(CCN(C(=O)OCC)C4)C3)CC2)OC1=O (single isomer, unassigned) [4-7 Isomer 2]	> 20000
CCN1C(=O)OC2(CCN(C3CC4(CCN(C(=O)OC)C4)C3)CC2)C1(C)C (single isomer, unassigned) [4-34 Isomer 2]	> 20000
COC(=O)N1CCC2(CC(N3CCC4(CC3)CC(=O)NC4Cc3ccccc3)C2)C1 (single isomer, unassigned) [3-7 Isomer 2]	> 20000
CCOC(=O)N1CC2(CC(N3CCC4(CC3)OC(=O)N(CC)C4CC)C2)C1 (racemic) [2-2 racemic]	> 20000
CCOC(=O)N1CCC2(CC(N3CCC4(CC3)CC(=O)NC4Cc3ccccc3)C2)C1 (single isomer, unassigned) [3-8 Isomer 2]	> 20000
CCCN1NC(=O)CC12CCN(C1CC3(CCN(C(=O)OCC)C3)C1)CC2 (single isomer, unassigned) [6-4 Isomer 2]	> 20000
CCOC(=O)N1CC2(CCC(N3CCC4(CC3)OC(=O)N(CC)C4(C)C)C2)C1 (racemic) [8-4 racemic]	> 20000
